The target in series [1] is T1, Inducible T-cell costimulator (Homo sapiens, UniProt Q9Y6W8).
T1 sequence (Q9Y6W8 whole entry): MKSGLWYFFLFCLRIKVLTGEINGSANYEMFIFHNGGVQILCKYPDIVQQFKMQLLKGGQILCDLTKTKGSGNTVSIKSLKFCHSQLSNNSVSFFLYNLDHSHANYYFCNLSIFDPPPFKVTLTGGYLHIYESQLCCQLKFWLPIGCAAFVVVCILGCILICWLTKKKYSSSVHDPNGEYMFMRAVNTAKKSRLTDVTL
The series is described as follows: Binding affinity to ICOS (unknown origin) assessed as dissociation constant.

The target of series [2] is T2, ICOS-ICOSL (Homo sapiens) (UniProt O75144+Q9Y6W8). The series is described as follows: (§1) Inhibition of ICOS/ICOSL (unknown origin) interaction by ELISA method. In kind it is protein assay. In general terms: ELISA stands for enzyme-linked immunosorbent assay.
Series [3] concerns the target T2, ICOS-ICOSL (Homo sapiens). The series is described as follows: (§2) Inhibition of ICOS/ICOSL (unknown origin) interaction by TR-FRET assay. Type of series: protein assay. For orientation: In TR-FRET formats the signal depends on donor and acceptor labels being close together.
Series [4] in a line: Stability of the compound in stimulated gastric fluid assessed as half life at pH 1.6. Conditions: simulated gastric fluid. In kind it is ADME.
A short description of series [5]: Apparent permeability of the compound in human Caco-2 cells across basolateral to apical side. Type of series: ADME, cell-based. (Passage across Caco-2 layers is used to estimate intestinal permeability.)
Series [6] in a line: Stability of the compound in stimulated intestinal fluid assessed as half life at pH 6.5. Conditions: simulated intestinal fluid. Type of series: ADME.
The nature of series [7]: Stability in rat liver microsomes assessed as half life. In kind it is ADME, Microsome.
The species entered for series [8] is Homo sapiens. The series is described as follows: Inhibition of VISTA/VSIG-3 (unknown origin) protein-protein interaction at 50 uM by TR-FRET assay.
Series [9] is filed under the species Homo sapiens. The series is described as follows: Inhibition of LAG-3/FGL1 (unknown origin) protein-protein interaction at 50 uM by TR-FRET assay.
For series [10], the target named is T3, ICOS-ICOSL (Homo sapiens, UniProt O75144+Q9Y6W8).
T3 sequence (O75144 whole entry): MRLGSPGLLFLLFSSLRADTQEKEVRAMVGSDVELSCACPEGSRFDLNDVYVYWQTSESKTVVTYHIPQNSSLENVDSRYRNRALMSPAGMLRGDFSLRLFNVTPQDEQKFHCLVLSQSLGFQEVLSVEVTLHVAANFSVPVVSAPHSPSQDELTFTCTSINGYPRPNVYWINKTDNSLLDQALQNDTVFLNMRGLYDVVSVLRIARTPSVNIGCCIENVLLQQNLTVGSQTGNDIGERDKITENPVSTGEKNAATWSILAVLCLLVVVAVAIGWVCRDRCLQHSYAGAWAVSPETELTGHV
T3 sequence (Q9Y6W8 whole entry): T1 sequence (Q9Y6W8 whole entry)
The description is as §1. Type of series: protein assay.

The species entered for series [11] is Homo sapiens. Briefly: Inhibition of PD-1/PD-L1 (unknown origin) protein-protein interaction at 50 uM by TR-FRET assay.
A short description of series [12]: Apparent permeability of the compound in human Caco-2 cells across apical to basolateral side. Type of series: ADME, cell-based.
The target of series [13] is T3, ICOS-ICOSL. The description is as §2. Type of series: protein assay.
The nature of series [14]: Lipophilicity, log D of compound at pH 7.4 by shake-flask method. Type of series: physicochemical. Conditions: buffer.
Series [15] can be described thus: Stability in human plasma assessed as parent compound remaining measured after 2 hrs. Type of series: ADME, cell-free. Conditions: read-out: Stability.
The species entered for series [16] is Homo sapiens. Briefly: Inhibition of CTLA4/B-7 (unknown origin) protein-protein interaction at 50 uM by TR-FRET assay.

Active and inactive are the calls of the source. Where a SMILES comes first, the peptide text is derived from it. Bridges are numbered along the chain shown (N, C = ends).

As for `CC[C@H](C)[C@@H]1NC(=O)[C@H](CO)NC(=O)[C@H](Cc2ccc(O)cc2)NC(=O)[C@H](Cc2ccc(O)cc2)NC(=O)[C@@H]2CSSC[C@H](NC(=O)[C@H](CC(C)C)NC(=O)[C@@H]3CCCN3C(=O)[C@@H]3CCCN3C1=O)C(=O)N[C@@H](CC(C)C)C(=O)N1CCC[C@H]1C(=O)N[C@@H](Cc1ccccc1)C(=O)NCC(=O)N[C@@H](CCCNC(=N)N)C(=O)N2` (cyclo(CLPFGRCYYSIPPL); disulfide 1-7), the Kd (in general, the free concentration of one partner at which half of the binding sites on the other are occupied at equilibrium, for simple one-to-one binding) in [1] was 4.47 µM. The inhibition result in series [2] and in series [3] was “inactive” in each case.
Take `CC(C)C[C@H](NC(=O)[C@@H]1CSSC[C@H](NC(=O)[C@@H](N)Cc2ccc(O)cc2)C(=O)N[C@@H](Cc2ccc(O)cc2)C(=O)N2CCC[C@H]2C(=O)N[C@@H](C(C)C)C(=O)N2CCC[C@H]2C(=O)N[C@@H](Cc2ccc(O)cc2)C(=O)N2CCC[C@H]2C(=O)N2CCC[C@H]2C(=O)N[C@@H](Cc2ccccc2)C(=O)N[C@@H](Cc2ccccc2)C(=O)N[C@@H](CC(C)C)C(=O)N1)C(=O)N[C@@H](Cc1ccccc1)C(=O)N[C@@H](CC(N)=O)C(=O)O` (H-YCYPVPYPPFFLCLFN-OH; disulfide 2-13): the half-life (commonly the time needed for the level to fall by half in the phase considered) in series [4] is 6.5 h; in [6], 20.4 h; in series [7] it was 18.3 h. The Papp B→A (usually the apparent permeability from the basolateral to the apical side of a cell layer) in series [5] was determined as 10.8 ×10⁻⁶ cm/s. The inhibition entry in the series filed under Homo sapiens [8], in the series filed under Homo sapiens [9], in the series filed under Homo sapiens [11] and in the series filed under Homo sapiens [16] was “inactive” each time. Also, in series [1], the Kd stood at 36.7 µM. For the same molecule, the IC50 (commonly the concentration that inhibits the measured activity by half) is 1.87 µM against ICOS-ICOSL [10] and 4.48 µM on ICOS-ICOSL [13]. Moreover, the Papp A→B – broadly, the apparent permeability from the apical to the basolateral side of a cell layer – in series [12] is 6.72 ×10⁻⁶ cm/s. The logD – broadly, the decadic logarithm of the distribution of all forms, ionised or not, between an organic phase and buffer at a given pH – in series [14] came out at 2.94. For the same molecule, in series [15], the remaining at 2 h amounted to 98.2%.
Consider `CC(C)C[C@@H]1NC(=O)[C@H](Cc2ccccc2)NC(=O)[C@H](Cc2ccccc2)NC(=O)[C@@H]2CCCN2C(=O)[C@@H]2CCCN2C(=O)[C@H](Cc2ccc(O)cc2)NC(=O)[C@@H]2CCCN2C(=O)[C@H](C(C)C)NC(=O)[C@@H]2CCCN2C(=O)[C@H](Cc2ccc(O)cc2)NC(=O)[C@@H]2CSSC[C@H](NC1=O)C(=O)N[C@@H](CC(C)C)C(=O)N1CCC[C@H]1C(=O)N[C@@H](Cc1ccccc1)C(=O)N[C@@H](Cc1ccc(O)cc1)C(=O)N2` (cyclo(CLPFYCYPVPYPPFFL); disulfide 1-6), for which, in series [2], the inhibition result was “inactive”. Besides, on ICOS-ICOSL [13], the IC50 is 3.68 µM.

The values above are taken from ChEMBL document CHEMBL5579793, “Design of cyclic peptides as novel inhibitors of ICOS/ICOSL interaction” (Bioorg Med Chem Lett, 2024).
